Patent US8895717B2, “Delivery of siRNA by neutral lipid compositions” (The Board of Regents of the University of Texas System, priority 2005, dated 2014)
Where a name gives a salt, the structure may show the parent alone.

Assays:
[1] = test system: VEGF mRNA; assay: VEGF mRNA expression, real-time RT-PCR; format: cell-based, human; conditions: SKOV3ip1; forskolin 1 μM, db-cAMP 1 mM
Procedure: Total RNA was extracted (Trizol reagent; Invitrogen Co, Carlsbad, Calif.) and reverse transcribed using an oligo(dT) primer and M-MLV reverse transcriptase (Life Technologies, Inc., Rockville, Md.) in a final reaction volume of 20 μl (60 min at 42° C.). PCR amplifications are performed using the ABI Prism 7700 Sequence Detection System with TaqMan One-Step RT-PCR Master Mix Reagent kit (PE Applied Biosystems, Foster City, Calif.). Quantitative values are obtained from the Ct value, at which the increase in fluorescent signal associated with exponential growth of PCR products starts to be detected by the laser detector of the Sequence Detection System, using the analysis software according to the manufacturer's instructions (each sample is normalized on the basis of its I8S content). The VEGF primers were obtained from Applied Biosystems (Item number HS00173626-ml). βAR expression was examined with semi-quantitative RT-PCR using the following primers: βAR (forward, 5′-[…]-3′ (SEQ ID NO:13), reverse, 5′-[…]-3′) (SEQ ID NO:14); β2AR (forward, 5′-[…]-3′ (SEQ ID NO:15), reverse, 5′-[…]-3′) (SEQ ID NO:16).

[2] = test system: HeyA8 tumor samples; assay: Mean vessel density (CD31) in HeyA8 tumor samples; format: in vivo, nude mice; conditions: for MVD counts: daily agonist treatment
Procedure: Paraffin sections were stained for CD31 (1:800 dilution, Pharmingen, San Jose, Calif.), MMP-2 (1:500 dilution, Chemicon, Temecula, Calif.), MMP-9 (1:200 dilution, Calbiochem, San Diego, Calif.), VEGF (1:500 dilution, Santa Cruz Biotechnology, Santa Cruz, Calif.) and bFGF (1:1,000 dilution, Sigma, St. Louis, Mo.) at 4° C. Samples were stained with a biotinylated goat anti-rabbit antibody for 30 min (prediluted), followed by strepavidin horseradish peroxidase for 30 min (1:300 dilution), and visualized in 3,3′-diaminobenzidine (DAB) for 5-10 min.
To quantify MVD, 10 random 0.159 mm^2 fields at 100× magnification were examined for each tumor, and the microvessels within those fields were counted. A single microvessel was defined as a discrete cluster of cells stained CD31(+), and the presence of a lumen was required for scoring as a microvessel.

[3] = test system: HeyA8 cells; assay: TUNEL apoptosis assay, HeyA8; format: cell-based, human; conditions: HeyA8, docetaxel 72 hours without or with DEVD-fmk
Procedure: (§1) Terminal deoxynucleotidyl transferase-mediated nick end labeling-positive cells were detected using Dead End Fluorometric terminal deoxynucleotidyl transferase-mediated nick end labeling system (APO-DIRECT, BD Biosciences/PharMingen, San Diego, Calif.) according to the manufacturer's instructions. […] Cells were fixed with 4% paraformaldehyde solution for 25 minutes on ice. Intracellular DNA fragments were then labeled by exposing cells to fluorescein-12-dUTP, treated with propidium iodide and RNaseA solution, and analyzed by flow cytometry (EPICS XL, Beckman Coulter, Miami, Fla.). The percentages of apoptotic cells were averaged over three consecutive experiments.

[4] = test system: SKOV3 cells; assay: TUNEL apoptosis assay, SKOV3; format: cell-based, human; conditions: SKOV3, docetaxel 72 hours without or with DEVD-fmk
Procedure: as §1

[5] = test system: FAK; assay: FAK cleavage in response to docetaxel, Western blot; format: cell-based, human; conditions: in the presence of DEVD-fmk
Procedure: Cells were lysed in modified RIPA buffer (50 mM Tris, 150 mM NaCl, 1% triton, 0.5% deoxycholate plus 25 µg/ml leupeptin, 10 µg/ml aprotinin, 2 mM EDTA, and 1 mM sodium orthovanadate (Sigma Chemical Co, St. Louis, Mo.) as previously described (Sood et al., 2004; Sood et al., 2002). A sample was removed from culture dishes by cell scraping and centrifuged at 12,500 rpm for 30 min. The […] protein concentration of the supernatant was determined using a bicinchoninic acid protein assay reagent kit (Pierce, Rockford, Ill.), and whole cell lysates were analyzed by 7.5% SDS-PAGE. Samples were then transferred to nitrocellulose membrane by semi-dry transfer (BioRad Laboratories, Hercules, Calif.). Membranes were blocked with 5% nonfat milk, and incubated with 0.25 μg/mL anti-FAK antibody (Biosource, International Camarillo, Calif.) for 1 h at room temperature. Antibody was detected with 0.167 μg/mL HRP-conjugated anti-mouse secondary antibody (The Jackson Laboratory, Bar Harbor, Me.) and developed with an enhanced chemiluminescence detection kit (Pierce). Equal loading was confirmed by detection of β-actin (0.1 μg/ml, anti-β-actin antibody, Sigma Chemical). Densitometric analysis was performed using the Scion Imaging software (Scion Corporation, Frederick, Md.).
It has been reported that FAK may be cleaved by caspase-3 (Gervais et al., 1998; Sasaki et al., 2002; Carragher et al., 2001). Based on observations regarding modulation of caspase levels by docetaxel in ovarian cancer cells, FAK cleavage after treatment with docetaxel was examined and whether there are differences in extent of FAK cleavage between the taxane-sensitive and taxane-resistant cell lines. In SKOV3 cells, FAK was cleaved after 48 and 72 hours of exposure to docetaxel (FIG. 7A). The 71-kDa fragments increased after treatment with docetaxel, whereas the 125-kDa fragments decreased. […] To study the dependence of FAK cleavage on caspase-3, the effect of DEVDfmk (caspase-3 inhibitor) was examined.

[6] = test system: HeyA8 cells; assay: Chronic restraint stress, HeyA8 orthotopic tumor growth; format: in vivo, nude mice; conditions: propranolol Alzet pump 2 mg/kg/day
Excerpt: Mice habituated to vivarium conditions for 1 week before the initiation of stress procedures. A restraint-stress procedure was used based on previous studies (Sheridan et al., 1991), substituting a novel Mouse Restraint System (FIG. 15A) for conical centrifuge tubes. In this system, up to 10 mice are placed in individual slots, and each slot can be adjusted to restrain the animal for a desired length of time. In the present study, restraint stress began between 8 a.m. and 10 a.m., and lasted for 2-6 hours for up to 21 days. […] Immunohistochemistry and H&E staining procedures were carried out on formalin-fixed paraffin-embedded tumors. […] Pumps were inserted on the nape of the neck 7 days prior to initiation of restraint stress for 2 hours daily. Mice were anesthetized with inhaled methoxyflurane (Medical Developments Australia Pty. Ltd, Melbourne, Australia), and implanted with Alzet pumps containing PBS or S-propranolol hydrochloride (Sigma Co., St. Louis, Mo.) diluted in PBS at a dose of 2 mg/kg/day, which allows for chronic continuous receptor blockade, for 28 days (Aarons and Molinoff, 1982; Exton et al., 2002).

[7] = test system: HeyA8 cells; assay: Daily β-agonist treatment of mice bearing HeyA8 ovarian cancer cells; format: in vivo, nude mice; conditions: terbutaline 5 mg/kg, xamoterol 1 mg/kg, isoproterenol plus propranolol 2 mg/kg, daily
Excerpt: Mice habituated to vivarium conditions for 1 week before the initiation of stress procedures. A restraint-stress procedure was used based on previous studies (Sheridan et al., 1991), substituting a novel Mouse Restraint System (FIG. 15A) for conical centrifuge tubes. In this system, up to 10 mice are placed in individual slots, and each slot can be adjusted to restrain the animal for a desired length of time. In the present study, restraint stress began between 8 a.m. and 10 a.m., and lasted for 2-6 hours for up to 21 days. The ovarian cancer cell lines were harvested from subconfluent cultures by a brief exposure to 0.25% trypsin and 0.02% EDTA, resuspended in Hank's balanced salt solution (HBSS), and tested for >95% viability by trypan blue dye exclusion. The HeyA8 cells were injected i.p. into mice at a concentration of 2.5×10^5 cells while the other cell lines were injected at 1.0×10^6 cells per 0.2 ml HBSS, ten days after starting stress in all groups. Animals were necropsied 21 days after tumor injection, and tumors in the peritoneal cavity were excised, weighed, and documented for location. Immunohistochemistry and H&E staining procedures were carried out on formalin-fixed paraffin-embedded tumors.
Starting 4 days after tumor cell injection, mice bearing HeyA8 ovarian cancer cells (n=10 per group) were treated daily with either 1) PBS; 2) isoproterenol (non-specific β-agonist) 10 mg/kg; 3) terbutaline (β2-agonist) 5 mg/kg; 4) xamoterol (β1-agonist) 1 mg/kg; or 5) isoproterenol plus 2 mg/kg of the non-specific β-antagonist propranolol.

Structure (SMILES): CCCC(=O)Nc1ncnc2c1ncn2[C@@H]1O[C@@H]2COP(=O)(O)O[C@H]2[C@H]1OC(=O)CCC [dibutyryl cAMP]
- effect on VEGF mRNA [1]: also increased VEGF mRNA levels

Structure (SMILES): CC(C)(C)NCC(O)c1cc(O)cc(O)c1 (stereo not drawn) [terbutaline]
- MVD counts [2]: significantly higher MVD counts compared to controls

Structure (SMILES): COC(=O)CC[C@H](NC(=O)[C@H](CC(=O)OC)NC(=O)OCc1ccccc1)C(=O)N[C@H](C(=O)N[C@@H](CC(=O)OC)C(=O)CF)C(C)C [DEVD-fmk]
- proportion of apoptotic cells [3]: 6%
- proportion of apoptotic cells [4]: 7%
- docetaxel-induced FAK cleavage [5]: docetaxel-induced FAK cleavage was blocked

Structure (SMILES): CCCCCCOC(=O)[C@]1(O)C[C@@H]2O[C@@]1(C)n1c3ccccc3c3c4c(c5c6ccccc6n2c5c31)C(=O)NC4 [KT5720]
- effect on VEGF mRNA [1]: efficiently blocked the effects of norepinephrine and forskolin on VEGF mRNA expression

Structure (SMILES): CC(C)NC[C@H](O)COc1cccc2ccccc12 (racemic) [propranolol, S-propranolol hydrochloride]
- effect on VEGF mRNA [1]: blocked
- MVD counts [2]: blocked that increase as well
- stress-induced increases in MVD counts ([2]; stressed animals): efficiently blocked stress-induced increases in MVD counts
- invasive disease among stressed animals [6]: 0%
- effect of stress on tumor weight and number of nodules ([6]; daily 2 hour stress): stress did not significantly increase tumor weight or the number of tumor nodules
- tumor burden [7]: blocked the isoproterenol-induced increase in tumor growth
